Laboratory results published in PubChem BioAssay AID2060883 (Molecular Pharmacology Branch, DTP, NCI, 2025).
Each block holds one molecule with its values, some of them ahead of it.

Test system: 843782-103-R-J1-PDC complex spheroid viability
Test: Anticancer human tumor 843782-103-R-J1-PDC patient-derived lung adenocarcinoma cell line growth inhibition [RAS]
Details: for IC50: curve of first compound; for viability, T/C: stronger effect = lower value
In short: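 Tumour cells grown as complex spheroids with HUVEC endothelial cells and mesenchymal stem cells, treated with RAS pathway inhibitor combinations. Each agent spans half-log steps from near clinical Cmax, or 10 microM where Cmax is unknown.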

[1] = second compound 0.000949 µM, first compound 0.0316 µM
[2] = second compound 0.000949 µM, first compound 0.1 µM
[3] = second compound 0.000949 µM, first compound 0.316 µM
[4] = second compound 0.000949 µM, first compound 1 µM
[5] = second compound 0.000949 µM, first compound 3.16 µM
[6] = second compound 0.000949 µM, first compound 10 µM
[7] = second compound 0.003 µM, first compound 0.0316 µM
[8] = second compound 0.003 µM, first compound 0.1 µM
[9] = second compound 0.003 µM, first compound 0.316 µM
[10] = second compound 0.003 µM, first compound 1 µM
[11] = second compound 0.003 µM, first compound 3.16 µM
[12] = second compound 0.003 µM, first compound 10 µM
[13] = second compound 0.00949 µM, first compound 0.0316 µM
[14] = second compound 0.00949 µM, first compound 0.1 µM
[15] = second compound 0.00949 µM, first compound 0.316 µM
[16] = second compound 0.00949 µM, first compound 1 µM
[17] = second compound 0.00949 µM, first compound 3.16 µM
[18] = second compound 0.00949 µM, first compound 10 µM
[19] = second compound 0.03 µM, first compound 0.0316 µM
[20] = second compound 0.03 µM, first compound 0.1 µM
[21] = second compound 0.03 µM, first compound 0.316 µM
[22] = second compound 0.03 µM, first compound 1 µM
[23] = second compound 0.03 µM, first compound 3.16 µM
[24] = second compound 0.03 µM, first compound 10 µM
[25] = second compound 0.0949 µM, first compound 0.0316 µM
[26] = second compound 0.0949 µM, first compound 0.1 µM
[27] = second compound 0.0949 µM, first compound 0.316 µM
[28] = second compound 0.0949 µM, first compound 1 µM
[29] = second compound 0.0949 µM, first compound 3.16 µM
[30] = second compound 0.0949 µM, first compound 10 µM
[31] = second compound 0.3 µM, first compound 0.0316 µM
[32] = second compound 0.3 µM, first compound 0.1 µM
[33] = second compound 0.3 µM, first compound 0.316 µM
[34] = second compound 0.3 µM, first compound 1 µM
[35] = second compound 0.3 µM, first compound 3.16 µM
[36] = second compound 0.3 µM, first compound 10 µM
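Further: viability read after seven days of compound exposure.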

IC50 (second compound 0.000949 µM): 591 nM
IC50 (second compound 0.003 µM): 406 nM
IC50 (second compound 0.00949 µM): < 31.6 nM
IC50 (second compound 0.03 µM): < 31.6 nM
IC50 (second compound 0.0949 µM): < 31.6 nM
IC50 (second compound 0.3 µM): < 31.6 nM
SMILES: CCC(CC)c1cc(NC2CCC(N)C2)n2nccc2n1 (stereo unspecified) + CCn1c(-c2cc(N3CCN(C)CC3)cnc2C(C)OC)c2c3cc(ccc31)-c1csc(n1)CC(NC(=O)C1CC1C)C(=O)N1CCCC(N1)C(=O)OCC(C)(C)C2
viability, T/C [1]: 75.2%
viability, T/C [2]: 76.5%
viability, T/C [3]: 72.7%
viability, T/C [4]: 30.7%
viability, T/C [5]: 0.47%
viability, T/C [6]: 0.37%
viability, T/C [7]: 53.5%
viability, T/C [8]: 53.9%
viability, T/C [9]: 58.1%
viability, T/C [10]: 31.4%
viability, T/C [11]: 0.26%
viability, T/C [12]: 0.35%
viability, T/C [13]: 30.6%
viability, T/C [14]: 34.3%
viability, T/C [15]: 36.8%
viability, T/C [16]: 17.1%
viability, T/C [17]: 0.17%
viability, T/C [18]: 0.29%
viability, T/C [19]: 21.9%
viability, T/C [20]: 19%
viability, T/C [21]: 21.2%
viability, T/C [22]: 15.5%
viability, T/C [23]: 0.09%
viability, T/C [24]: 0.27%
viability, T/C [25]: 15.7%
viability, T/C [26]: 15%
viability, T/C [27]: 16.8%
viability, T/C [28]: 14.7%
viability, T/C [29]: 0.52%
viability, T/C [30]: 0.34%
viability, T/C [31]: 15%
viability, T/C [32]: 14.2%
viability, T/C [33]: 14.8%
viability, T/C [34]: 13.4%
viability, T/C [35]: 0.25%
viability, T/C [36]: 0.53%

IC50 (second compound 0.00316 µM): 14.2 nM
IC50 (second compound 0.01 µM): 9.03 nM
IC50 (second compound 0.0316 µM): 10.4 nM
IC50 (second compound 0.1 µM): 8.53 nM
IC50 (second compound 0.316 µM): 8.44 nM
IC50 (second compound 1 µM): 9.84 nM
SMILES: CC(C)n1nc(-c2ccc3oc(N)nc3c2)c2c(N)ncnc21 + C=CC(=O)N1CCN(c2nc(OCC3CCCN3C)nc3c(F)c(-c4nc(N)cc(C)c4C(F)(F)F)c(Cl)cc23)C(C)C1
viability, T/C (second compound 0.00316 µM, first compound 0.000316 µM): 93.5%
viability, T/C (second compound 0.00316 µM, first compound 0.001 µM): 72%
viability, T/C (second compound 0.00316 µM, first compound 0.00316 µM): 81.2%
viability, T/C (second compound 0.00316 µM, first compound 0.01 µM): 53.2%
viability, T/C (second compound 0.00316 µM, first compound 0.0316 µM): 36.3%
viability, T/C (second compound 0.00316 µM, first compound 0.1 µM): 21.2%
viability, T/C (second compound 0.01 µM, first compound 0.000316 µM): 86.5%
viability, T/C (second compound 0.01 µM, first compound 0.001 µM): 79.8%
viability, T/C (second compound 0.01 µM, first compound 0.00316 µM): 63.3%
viability, T/C (second compound 0.01 µM, first compound 0.01 µM): 50.2%
viability, T/C (second compound 0.01 µM, first compound 0.0316 µM): 30.8%
viability, T/C (second compound 0.01 µM, first compound 0.1 µM): 18.8%
viability, T/C (second compound 0.0316 µM, first compound 0.000316 µM): 84.4%
viability, T/C (second compound 0.0316 µM, first compound 0.001 µM): 79.2%
viability, T/C (second compound 0.0316 µM, first compound 0.00316 µM): 66.6%
viability, T/C (second compound 0.0316 µM, first compound 0.01 µM): 48.3%
viability, T/C (second compound 0.0316 µM, first compound 0.0316 µM): 36.5%
viability, T/C (second compound 0.0316 µM, first compound 0.1 µM): 20.9%
viability, T/C (second compound 0.1 µM, first compound 0.000316 µM): 81.6%
viability, T/C (second compound 0.1 µM, first compound 0.001 µM): 73.6%
viability, T/C (second compound 0.1 µM, first compound 0.00316 µM): 66.4%
viability, T/C (second compound 0.1 µM, first compound 0.01 µM): 45.4%
viability, T/C (second compound 0.1 µM, first compound 0.0316 µM): 33.1%
viability, T/C (second compound 0.1 µM, first compound 0.1 µM): 19.9%
viability, T/C (second compound 0.316 µM, first compound 0.000316 µM): 101%
viability, T/C (second compound 0.316 µM, first compound 0.001 µM): 73.5%
viability, T/C (second compound 0.316 µM, first compound 0.00316 µM): 67.3%
viability, T/C (second compound 0.316 µM, first compound 0.01 µM): 51%
viability, T/C (second compound 0.316 µM, first compound 0.0316 µM): 28.8%
viability, T/C (second compound 0.316 µM, first compound 0.1 µM): 19.2%
viability, T/C (second compound 1 µM, first compound 0.000316 µM): 85.3%
viability, T/C (second compound 1 µM, first compound 0.001 µM): 73.9%
viability, T/C (second compound 1 µM, first compound 0.00316 µM): 62.2%
viability, T/C (second compound 1 µM, first compound 0.01 µM): 53.5%
viability, T/C (second compound 1 µM, first compound 0.0316 µM): 31.8%
viability, T/C (second compound 1 µM, first compound 0.1 µM): 18.7%

IC50 (second compound 0.000949 µM): 35.2 nM
IC50 (second compound 0.003 µM): < 31.6 nM
IC50 (second compound 0.00949 µM): 38.4 nM
IC50 (second compound 0.03 µM): 34.8 nM
IC50 (second compound 0.0949 µM): 42.1 nM
IC50 (second compound 0.3 µM): < 31.6 nM
SMILES: CC(Nc1ccc2c(c1)OCCn1cc(N3C(=O)OCC3C(F)F)nc1-2)C(N)=O (stereo unspecified) + CCn1c(-c2cccnc2C(C)OC)c2c3cc(ccc31)N1CCOC(CC(NC(=O)C(C(C)C)N(C)C(=O)C3(F)CCN(C(=O)C#CC(C)(C)N(C)C)CC3)C(=O)N3CCCC(N3)C(=O)OCC(C)(C)C2)C1
viability, T/C [1]: 52.9%
viability, T/C [2]: 31.6%
viability, T/C [3]: 31.5%
viability, T/C [4]: 16.4%
viability, T/C [5]: 14.3%
viability, T/C [6]: 7.59%
viability, T/C [7]: 44.2%
viability, T/C [8]: 36.5%
viability, T/C [9]: 25.6%
viability, T/C [10]: 25.1%
viability, T/C [11]: 14.9%
viability, T/C [12]: 9.07%
viability, T/C [13]: 53%
viability, T/C [14]: 37.7%
viability, T/C [15]: 23.8%
viability, T/C [16]: 19.6%
viability, T/C [17]: 14.1%
viability, T/C [18]: 8.01%
viability, T/C [19]: 52%
viability, T/C [20]: 34.8%
viability, T/C [21]: 24.9%
viability, T/C [22]: 18.9%
viability, T/C [23]: 13.8%
viability, T/C [24]: 7.4%
viability, T/C [25]: 56%
viability, T/C [26]: 32.5%
viability, T/C [27]: 24.1%
viability, T/C [28]: 21.1%
viability, T/C [29]: 13.9%
viability, T/C [30]: 7.55%
viability, T/C [31]: 50.3%
viability, T/C [32]: 35.7%
viability, T/C [33]: 25.6%
viability, T/C [34]: 19.4%
viability, T/C [35]: 10.7%
viability, T/C [36]: 6.72%
